In US8871799B2, “Iminochromene anti-viral compounds” (priority 2010, dated 2014):

Columns and labels:
HCV2a virus = assay: HCV IF antiviral assay (HCV inhibition assay); format: cell-based, Hepatitis C virus; details: for Number HCV infected cells: Huh7 cells, 80 infected cells at 0 μM
HCV = HCV RNA release by Huh7 cells; format: cell-based, Hepatitis C virus; details: control level 100% in the absence of drug
[1] = test system: Murine Encephalomyocarditis virus (EMCV); assay: EMCV antiviral assay (MTS cell viability); details: Huh7 cells, 250 pfu EMCV, negative controls ~0.7-0.75

Molecule | Change in number of HCV-infected cells with increasing concentration (HCV2a virus; 0, 5 μM, 10 μM and 50 μM) | Number HCV infected cells (HCV2a virus; KIN700 added 5 μM) | Number HCV infected cells (HCV2a virus; KIN700 added 10 μM) | Number HCV infected cells (HCV2a virus; KIN700 added 50 μM) | Level of HCV RNA in supernatant (HCV; KIN700 at 10 μM) | Cell viability post-infection ([1]; 5 μM) | Cell viability post-infection ([1]; 10 μM) | Cell viability post-infection ([1]; 20 μM) | HCV infection with positive control treatment (HCV2a virus; positive control, representative experiments) | Level of HCV RNA in supernatant (HCV; Interferon sample)
COc1ccc(/N=c2\oc3ccc(Cl)cc3cc2C(N)=S)cc1 [KIN700] | dose-dependent decrease | 25 | 13 | 13 | less than 10% | ~0.8 | ~1.5 | ~1.7 |  | 
interferon [reference compound] |  |  |  |  |  |  |  |  | completely blocks HCV infection | less than 5%
